What was measured:
Experiment in all cases: drug sensitivity score (DSS) (DSS (unitless, 0-50 scale)); higher = more sensitive (stronger viability inhibition); extreme values may be limits of the assay
Conditions in all cases: 72 h; culture: 2D
FM-MEL-3 = system: FM-MEL-3
In short: (§1)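 Patient-derived melanoma cultures (1000–1500 cells per well) and melanoma cell lines were grown in 2D in 384-well plates holding a 527-compound oncology library. Each compound was dissolved in DMSO or water and tested at five concentrations spanning a 10,000-fold range. After 72 h at 37 °C, viability was read by CellTiter-Glo luminescence. A drug sensitivity score, a modified area-under-curve measure, was derived from dose-response curves fitted in the in-house Breeze software.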

WM852 = system: WM852
In short: as §1

WM165 = system: WM165
In short: as §1

FM-MEL-6 = system: FM-MEL-6
In short: as §1

Bowes = system: Bowes
In short: as §1

SK-MEL-2 = system: SK-MEL-2
In short: as §1

SK-MEL-28 = system: SK-MEL-28
In short: as §1

FM-MEL-2 = system: FM-MEL-2
In short: as §1

Compound | drug sensitivity score (FM-MEL-3) | drug sensitivity score (WM852) | drug sensitivity score (WM165) | drug sensitivity score (FM-MEL-6) | drug sensitivity score (Bowes) | drug sensitivity score (SK-MEL-2) | drug sensitivity score (SK-MEL-28) | drug sensitivity score (FM-MEL-2)
CN1CCN(c2ccc3nc(-c4c(N)c5c(F)cccc5[nH]c4=O)[nH]c3c2)CC1 [Dovitinib] | 0 | 0 | 0.3 | 0 | 0.5 | 0 | 0 | 0
COc1cccc2c1C(=O)c1c(O)c3c(c(O)c1C2=O)C[C@@](O)(C(=O)CO)C[C@@H]3O[C@H]1C[C@H](N)[C@H](O)[C@H](C)O1 [Doxorubicin] | 6.8 | 4.8 | 15.1 | 7.8 | 4.2 | 4.9 | 7.8 | 6.7
C[C@H](Nc1ncnc2nc[nH]c12)c1cc2cccc(Cl)c2c(=O)n1-c1ccccc1 [Duvelisib] | 0 | 0 | 0 | 0 | 0 | 0 | 1.3 | 2.3
Cc1ccc(NS(=O)(=O)c2cccc(C#N)c2)c2[nH]cc(C#N)c12 [E7820] | 5.5 | 0 | 5.3 | 0.7 | 0 | 0 | 0 | 1.9
Cc1cc(Nc2cc(N3CCN(C)CC3)nc(/C=C/c3ccccc3)n2)n[nH]1 [ENMD-2076] | 7.8 | 7.5 | 12.6 | 6.4 | 11.1 | 8.9 | 7.9 | 7.6
Cc1cc(C)c(CNC(=O)c2cc(-c3ccc(CN4CCOCC4)cc3)cc3c2cnn3C2CCCC2)c(=O)[nH]1 [EPZ-5687] | 2.8 | 0 | 0 | 0.5 | 2.6 | 0 | 0 | 0
NC(=O)/C(=C/n1cnc(-c2cc(C(F)(F)F)cc(C(F)(F)F)c2)n1)c1cncnc1 [Eltanexor] | 18.4 | 11.2 | 19.3 | 11.8 | 14.8 | 15.2 | 14 | 9.5
CC(C)(O)CNc1nc(Nc2ccnc(C(F)(F)F)c2)nc(-c2cccc(C(F)(F)F)n2)n1 [Enasidenib] | 0 | 0 | 0 | 0 | 0 | 1.9 | 0 | 3.1
COC(=O)N[C@@H](C)CNc1nccc(-c2cn(C(C)C)nc2-c2cc(Cl)cc(NS(C)(=O)=O)c2F)n1 [Encorafenib] | 1.9 | 1.4 | 19.2 | 0 | 0.5 | 1.1 | 19.6 | 1.3
C[C@@H]1CN(C(=O)c2ccc(NC(=O)c3cc(O[C@H](C)c4c(Cl)ccc(F)c4Cl)c(N)nn3)cc2)C[C@H](C)N1 [Ensartinib] | 2.6 | 0.4 | 0.7 | 1.5 | 1.6 | 0 | 0 | 0.5
Nc1ccccc1NC(=O)c1ccc(CNC(=O)OCc2cccnc2)cc1 [Entinostat] | 6.6 | 0.1 | 11.4 | 8.2 | 1.8 | 7.9 | 8.7 | 4.5
c1cn2cc(-c3ccc4cn[nH]c4c3)nc(Nc3ccc(N4CCOCC4)cc3)c2n1 [Entospletinib] | 0 | 0 | 0 | 0 | 0 | 0 | 0 | 6.7
CN1CCN(c2ccc(C(=O)Nc3n[nH]c4ccc(Cc5cc(F)cc(F)c5)cc34)c(NC3CCOCC3)c2)CC1 [Entrectinib] | 0 | 0 | 0 | 0 | 0 | 0 | 0 | 0
CNC(=O)c1ccc(N2C(=S)N(c3ccc(C#N)c(C(F)(F)F)c3)C(=O)C2(C)C)cc1F [Enzalutamide] | 0.3 | 0.9 | 0 | 0 | 0.1 | 0 | 0 | 0.2
Cn1cc(C2=C(c3cn(C4CCN(Cc5ccccn5)CC4)c4ccccc34)C(=O)NC2=O)c2ccccc21 [Enzastaurin] | 3.7 | 2.1 | 0 | 0 | 0 | 0.2 | 0 | 1.7
NS(=O)(=O)NCCNc1nonc1/C(=N/O)Nc1ccc(F)c(Br)c1 [Epacadostat] | 1 | 0.7 | 0 | 0.5 | 0 | 0 | 0 | 0.5

Compound | drug sensitivity score (FM-MEL-3) | drug sensitivity score (WM852) | drug sensitivity score (WM165) | drug sensitivity score (FM-MEL-6) | drug sensitivity score (Bowes) | drug sensitivity score (SK-MEL-2) | drug sensitivity score (SK-MEL-28) | drug sensitivity score (FM-MEL-2)
COc1cccc2c1C(=O)c1c(O)c3c(c(O)c1C2=O)C[C@@](O)(C(=O)CO)C[C@@H]3O[C@H]1C[C@H](N)[C@@H](O)[C@H](C)O1 [Epirubicin] | 7.6 | 4.6 | 14.3 | 8.6 | 4 | 5.3 | 7.4 | 6
CCOc1ccccc1-n1c(C(C)N2CCN(C(=O)COc3ccc(Cl)cc3)CC2)nc2ccccc2c1=O (stereo unspecified) [Erastin] | 5.8 | 12 | 10.8 | 0 | 6.2 | 1.3 | 0 | 7.6
COc1cc(OC)cc(N(CCNC(C)C)c2ccc3ncc(-c4cnn(C)c4)nc3c2)c1 [Erdafitinib] | 0 | 0.8 | 0 | 0 | 2.4 | 0 | 0 | 0
C=C1C[C@@H]2CC[C@@]34C[C@H]5O[C@H]6[C@@H](O3)[C@H]3O[C@H](CC[C@@H]3O[C@H]6[C@H]5O4)CC(=O)C[C@@H]3[C@@H](OC)[C@@H](C[C@H](O)CN)O[C@H]3C[C@H]3O[C@@H](CC[C@@H]1O2)C[C@@H](C)C3=C [Eribulin] | 9.4 | 22.8 | 22.5 | 18.5 | 23.6 | 20.4 | 11.2 | 4.8
C#Cc1cccc(Nc2ncnc3cc(OCCOC)c(OCCOC)cc23)c1 [Erlotinib] | 3.5 | 2.5 | 3.9 | 1.9 | 1.8 | 0 | 1.1 | 4.4
COc1cc([C@@H]2c3cc4c(cc3[C@@H](O[C@@H]3O[C@@H]5CO[C@@H](C)O[C@H]5[C@H](O)[C@H]3O)[C@H]3COC(=O)[C@H]23)OCO4)cc(OC)c1O [Etoposide] | 4 | 0.4 | 19.1 | 5.7 | 2.7 | 2.6 | 5.9 | 2.9
CO[C@H]1C[C@@H]2CC[C@@H](C)[C@@](O)(O2)C(=O)C(=O)N2CCCC[C@H]2C(=O)O[C@H]([C@H](C)C[C@@H]2CC[C@@H](OCCO)[C@H](OC)C2)CC(=O)[C@H](C)/C=C(\C)[C@@H](O)[C@@H](OC)C(=O)[C@H](C)C[C@H](C)/C=C/C=C/C=C/1C [Everolimus] | 4.7 | 0 | 4.9 | 3.6 | 0 | 0 | 3 | 2.2
C=C1C[C@@H]2[C@H](CC[C@]3(C)C(=O)CC[C@@H]23)[C@@]2(C)C=CC(=O)C=C12 [Exemestane] | 0 | 0.3 | 0.2 | 0 | 1.4 | 0 | 0 | 0
CCn1c(=O)c(-c2ccc(Cl)cc2Cl)cc2cnc(Nc3ccc(N4CCNCC4)c(F)c3)nc21 [FRAX486] | 0 | 1.4 | 7.6 | 1.9 | 9.7 | 0.5 | 3.2 | 0
Cc1cnc(Nc2ccc(OCCN3CCCC3)cc2)nc1Nc1cccc(S(=O)(=O)NC(C)(C)C)c1 [Fedratinib] | 6.7 | 6.8 | 9.1 | 3.1 | 10.9 | 4.5 | 3 | 3.6
CON(C)C(=O)N1N=C(c2cc(F)ccc2F)S[C@@]1(CCCN)c1ccccc1 [Filanesib] | 10 | 23.3 | 17.4 | 11.3 | 12.5 | 16.5 | 4.5 | 4.7
O=C(Nc1nc2cccc(-c3ccc(CN4CCS(=O)(=O)CC4)cc3)n2n1)C1CC1 [Filgotinib] | 0 | 5.9 | 0.7 | 4.5 | 4.5 | 0 | 0 | 0
CC(C)(C)NC(=O)[C@H]1CC[C@H]2[C@@H]3CC[C@H]4NC(=O)C=C[C@]4(C)[C@H]3CC[C@]12C [Finasteride] | 0 | 0 | 0 | 0 | 0 | 0 | 0 | 0
CCCCCCCCc1ccc(CCC(N)(CO)CO)cc1 [Fingolimod] | 7.5 | 7 | 6.3 | 6.4 | 8.5 | 5.7 | 6.2 | 6.2
O=c1[nH]c(=O)n([C@H]2C[C@H](O)[C@@H](CO)O2)cc1F [Floxuridine] | 0 | 4.9 | 18.4 | 1.2 | 15.7 | 0 | 8 | 0.4
Nc1nc(F)nc2c1ncn2[C@@H]1O[C@H](CO)[C@@H](O)[C@@H]1O [Fludarabine] | 0.6 | 0 | 0 | 3.1 | 0 | 4.7 | 1.1 | 1.4
